Earlier results, collected in PubChem BioAssay AID1259409 (Chemical Carcinogenesis Research Information System (CCRIS), 2018).

System: rodent chemically induced tumor inhibition, incidence and multiplicity
Assay: CCRIS tumor inhibitor studies

In the case of `COc1ccc2c(c1)c(CC(=O)O)c(C)n2C(=O)c1ccc(Cl)cc1`, the “tumour outcome (control, treated, inhibition, significance)” value (Carcinogen: METHYLAZOXYMETHANOL, 590-96-5, Dose [Inhibitor]: 7.5 MG/KG BW DAILY FOR 3 WK STARTING 27 WK AFTER THE START OF CARCINOGEN TREATMENT (STUDY DURATION: 30 WK), Route [Inhibitor]: INTRARECTAL, Species: RAT, Strain/Sex: DONRYU/MALE, Target Tissue: Type of Lesion: SMALL INTESTINE: ADENOCARCINOMA, Dose [Carcinogen]: 20 MG/KG BW 1/WK FOR 6 WK, Promoter: NONE USED) is listed as 10/23 (43%), 4/30 (13%), 70%, p<0.05, the “tumour outcome (control, treated, inhibition, significance)” value (Carcinogen: N,N-DIETHYLNITROSAMINE, 55-18-5, Dose [Inhibitor]: 0.016 MG/ML IN DRINKING WATER 3/WK FOR 4 MO STARTING 4 MO AFTER THE START OF CARCINOGEN TREATMENT AND CONTINUING FOR DUR, Route [Inhibitor]: ORAL, Species: MOUSE, Strain/Sex: C57BL/MALE, Target Tissue: Type of Lesion: ESOPHAGUS: TUMOR, Dose [Carcinogen]: 0.04 ML/1000 ML DRINKING WATER DAILY FOR 30 D THEN EVERY SECOND WK TO COMPLETE 5 MO PERIOD, Promoter: NONE USED) is listed as 16/16 (100%), 19/19 (100%), 0%, not significant and the “tumour outcome (control, treated, inhibition, significance)” value (Carcinogen: N,N-DIETHYLNITROSAMINE, 55-18-5, Dose [Inhibitor]: 0.016 MG/ML IN DRINKING WATER GIVEN TOGETHER WITH CARCINOGEN STARTING AT THE BEGINNING OF THE STUDY DAILY FOR 14 D AND 3, Route [Inhibitor]: ORAL, Species: MOUSE, Strain/Sex: C57BL/MALE, Target Tissue: Type of Lesion: ESOPHAGUS: TUMOR, Dose [Carcinogen]: 0.04 ML/1000 ML DRINKING WATER DAILY FOR 14 D THEN 3 D/WK FOR DURATION OF STUDY, Promoter: NONE USED) is listed as 24/24 (100%), 45/45 (100%), 0%, not significant. For the same compound, the “tumour outcome (control, treated, inhibition, significance)” value (Carcinogen: N,N-DIETHYLNITROSAMINE, 55-18-5, Dose [Inhibitor]: 0.016 MG/ML IN DRINKING WATER GIVEN TOGETHER WITH CARCINOGEN STARTING AT THE BEGINNING OF THE STUDY DAILY FOR 30 D THEN, Route [Inhibitor]: ORAL, Species: MOUSE, Strain/Sex: C57BL/MALE, Target Tissue: Type of Lesion: ESOPHAGUS: TUMOR, Dose [Carcinogen]: 0.04 ML/1000 ML DRINKING WATER GIVEN TOGETHER WITH AGENT, Promoter: NONE USED) was 8/8 (100%), 16/16 (100%), 0%, not significant, the “tumour outcome (control, treated, inhibition, significance)” value (Carcinogen: N-BUTYL-N-(4-HYDROXYBUTYL)NITROSAMINE, 3817-11-6, Dose [Inhibitor]: 0, 7.5 MG/KG DIET BEGINNING 1 WK PRIOR TO CARCINOGEN TREATMENT AND CONTINUING FOR DURATION OF STUDY (STUDY DURATION: 187, Route [Inhibitor]: ORAL, Species: MOUSE, Strain/Sex: BDF/MALE, Target Tissue: Type of Lesion: URINARY BLADDER: TUMOR, Dose [Carcinogen]: 7.5 MG IN 0.1 ML OF ETHANOL:WATER (20:80) 1/WK FOR 8 WK, Promoter: NONE USED) was 24%, 5%, 79%, p<0.05 and the “tumour outcome (control, treated, inhibition, significance)” value (Carcinogen: N-BUTYL-N-(4-HYDROXYBUTYL)NITROSAMINE, 3817-11-6, Dose [Inhibitor]: 0, 15 MG/KG DIET BEGINNING 1 WK PRIOR TO CARCINOGEN TREATMENT AND CONTINUING FOR DURATION OF STUDY (STUDY DURATION: 187, Route [Inhibitor]: ORAL, Species: MOUSE, Strain/Sex: BDF/MALE, Target Tissue: Type of Lesion: URINARY BLADDER: TUMOR, Dose [Carcinogen]: 7.5 MG IN 0.1 ML OF ETHANOL:WATER (20:80) 1/WK FOR 8 WK, Promoter: NONE USED) was 24%, 0%, 100%, p<0.01. For the same compound, the “tumour outcome (control, treated, inhibition, significance)” value (Carcinogen: N-BUTYL-N-(4-HYDROXYBUTYL)NITROSAMINE, 3817-11-6, Dose [Inhibitor]: 0, 20 PPM IN DRINKING WATER FOR 20 WK BEGINNING POST PROMOTER TREATMENT (STUDY DURATION: 44 WK), Route [Inhibitor]: ORAL, Species: RAT, Strain/Sex: F344/MALE, Target Tissue: Type of Lesion: URINARY BLADDER: PAPILLOMA, Dose [Carcinogen]: 0.05% IN DRINKING WATER FOR 4 WK, Promoter: BUTYLATED HYDROXYANISOLE, 25013-16-5) was 6/15 (40%), 9/15 (60%), -50%, not significant, the “tumour outcome (control, treated, inhibition, significance)” value (Carcinogen: N-BUTYL-N-(4-HYDROXYBUTYL)NITROSAMINE, 3817-11-6, Dose [Inhibitor]: 0, 20 PPM IN DRINKING WATER FOR 20 WK BEGINNING POST PROMOTER TREATMENT (STUDY DURATION: 44 WK), Route [Inhibitor]: ORAL, Species: RAT, Strain/Sex: F344/MALE, Target Tissue: Type of Lesion: URINARY BLADDER: PAPILLOMA, Dose [Carcinogen]: 0.05% IN DRINKING WATER FOR 4 WK, Promoter: SODIUM L-ASCORBATE, 134-03-2) was 10/15 (67%), 10/15 (67%), 0%, not significant and the “tumour outcome (control, treated, inhibition, significance)” value (Carcinogen: N-BUTYL-N-(4-HYDROXYBUTYL)NITROSAMINE, 3817-11-6, Dose [Inhibitor]: 0, 20 PPM IN DRINKING WATER FOR 20 WK BEGINNING POST PROMOTER TREATMENT (STUDY DURATION: 44 WK), Route [Inhibitor]: ORAL, Species: RAT, Strain/Sex: F344/MALE, Target Tissue: Type of Lesion: URINARY BLADDER: TRANSITIONAL CELL CARCINOMA, Dose [Carcinogen]: 0.05% IN DRINKING WATER FOR 4 WK, Promoter: BUTYLATED HYDROXYANISOLE, 25013-16-5) was 3/15 (20%), 3/15 (20%), 0%, not significant. For the same compound, the “tumour outcome (control, treated, inhibition, significance)” value (Carcinogen: N-BUTYL-N-(4-HYDROXYBUTYL)NITROSAMINE, 3817-11-6, Dose [Inhibitor]: 0, 20 PPM IN DRINKING WATER FOR 20 WK BEGINNING POST PROMOTER TREATMENT (STUDY DURATION: 44 WK), Route [Inhibitor]: ORAL, Species: RAT, Strain/Sex: F344/MALE, Target Tissue: Type of Lesion: URINARY BLADDER: TRANSITIONAL CELL CARCINOMA, Dose [Carcinogen]: 0.05% IN DRINKING WATER FOR 4 WK, Promoter: SODIUM L-ASCORBATE, 134-03-2) was 6/15 (40%), 2/15 (13%), 67%, not significant.
